Measurements taken from the NIST ThermoML archive (doi:10.1021/je0504212).

What was measured:
[1] = 308.5 K; 101.33 kPa; Liquid
[2] = excess molar enthalpy (molar enthalpy of mixing); xn = mol fraction of the nth substance listed; details: 308.15 K, 101 kPa, Liquid, Flow calorimetry

CCOCCOCC [1,2-diethoxyethane]
Details | mass density [kg/m3]
[1] | 826.22

CCOCCOCC [1,2-diethoxyethane] + OCc1ccccc1
[2]
Details | excess molar enthalpy [kcal/mol]
x1 = 0.0296 | -0.0118
x1 = 0.0575 | -0.0292
x1 = 0.0838 | -0.0483
x1 = 0.1087 | -0.0659
x1 = 0.1546 | -0.09515
x1 = 0.196 | -0.1143
x1 = 0.2678 | -0.1312
x1 = 0.3278 | -0.1323
x1 = 0.4225 | -0.1224
x1 = 0.5232 | -0.1073
x1 = 0.594 | -0.09457
x1 = 0.687 | -0.0683
x1 = 0.7453 | -0.0439
x1 = 0.8144 | -0.0092
x1 = 0.8541 | 0.0102
x1 = 0.8977 | 0.0262
x1 = 0.9461 | 0.0297

COCCOC [1,2-dimethoxyethane]
Details | mass density [kg/m3]
[1] | 850.28

COCCOC [1,2-dimethoxyethane] + OCc1ccccc1
[2]
Details | excess molar enthalpy [kcal/mol]
x1 = 0.0395 | 0.0173
x1 = 0.076 | 0.0136
x1 = 0.1098 | 0.000693
x1 = 0.1413 | -0.0149
x1 = 0.1979 | -0.0436
x1 = 0.2476 | -0.0633
x1 = 0.3305 | -0.0801
x1 = 0.3969 | -0.08
x1 = 0.4968 | -0.0624
x1 = 0.5969 | -0.0293
x1 = 0.6638 | 0.00306
x1 = 0.7476 | 0.0543
x1 = 0.7979 | 0.08707
x1 = 0.8555 | 0.1169
x1 = 0.8876 | 0.1236
x1 = 0.9221 | 0.1161
x1 = 0.9595 | 0.08243

CCOCCOCCOCCO [2-(2-(2-ethoxyethoxy)ethoxy)ethanol]
Details | mass density [kg/m3]
[1] | 1008.8

CCOCCOCCOCCO [2-(2-(2-ethoxyethoxy)ethoxy)ethanol] + OCc1ccccc1
[2]
Details | excess molar enthalpy [kcal/mol]
x1 = 0.0241 | -0.0471
x1 = 0.047 | -0.08444
x1 = 0.0689 | -0.1138
x1 = 0.0898 | -0.1373
x1 = 0.129 | -0.1713
x1 = 0.1648 | -0.1944
x1 = 0.2284 | -0.2216
x1 = 0.283 | -0.236
x1 = 0.3719 | -0.2477
x1 = 0.4704 | -0.2462
x1 = 0.5422 | -0.2354
x1 = 0.6398 | -0.2077
x1 = 0.7031 | -0.1828
x1 = 0.7804 | -0.1459
x1 = 0.8257 | -0.1219
x1 = 0.8766 | -0.09221
x1 = 0.9343 | -0.0542

CCOCCO [2-ethoxyethan-1-ol]
Details | mass density [kg/m3]
[1] | 916

CCOCCO [2-ethoxyethan-1-ol] + OCc1ccccc1
[2]
Details | excess molar enthalpy [kcal/mol]
x1 = 0.0424 | -0.0217
x1 = 0.0814 | -0.0387
x1 = 0.1173 | -0.0522
x1 = 0.1505 | -0.0635
x1 = 0.21 | -0.0803
x1 = 0.2617 | -0.09209
x1 = 0.3471 | -0.1055
x1 = 0.4148 | -0.1101
x1 = 0.5154 | -0.1094
x1 = 0.6147 | -0.1001
x1 = 0.6802 | -0.08972
x1 = 0.7613 | -0.0722
x1 = 0.8097 | -0.0592
x1 = 0.8645 | -0.0422
x1 = 0.8948 | -0.0319
x1 = 0.9273 | -0.0211
x1 = 0.9623 | -0.00994

CCOCCOCCO [3,6-dioxa-1-octanol]
Details | mass density [kg/m3]
[1] | 974.67

CCOCCOCCO [3,6-dioxa-1-octanol] + OCc1ccccc1
[2]
Details | excess molar enthalpy [kcal/mol]
x1 = 0.0289 | -0.0471
x1 = 0.0561 | -0.0828
x1 = 0.0819 | -0.1102
x1 = 0.1063 | -0.1318
x1 = 0.1514 | -0.1627
x1 = 0.1921 | -0.1839
x1 = 0.2629 | -0.2083
x1 = 0.3223 | -0.2197
x1 = 0.4164 | -0.225
x1 = 0.517 | -0.2142
x1 = 0.588 | -0.1989
x1 = 0.6816 | -0.1701
x1 = 0.7405 | -0.1475
x1 = 0.8106 | -0.1164
x1 = 0.8509 | -0.09579
x1 = 0.8954 | -0.0707
x1 = 0.9448 | -0.0393

OCc1ccccc1 [benzenemethanol]
Details | mass density [kg/m3]
[1] | 1033.64

OCc1ccccc1 [benzenemethanol] + CCCCOCCCC
[2]
Details | excess molar enthalpy [kcal/mol]
x2 = 0.0247 | -0.0016
x2 = 0.0481 | 0.000239
x2 = 0.0705 | 0.00425
x2 = 0.0918 | 0.00963
x2 = 0.1317 | 0.0222
x2 = 0.1682 | 0.0355
x2 = 0.2327 | 0.0605
x2 = 0.288 | 0.0821
x2 = 0.3776 | 0.1136
x2 = 0.4765 | 0.1406
x2 = 0.5482 | 0.1535
x2 = 0.6454 | 0.1627
x2 = 0.7082 | 0.1645
x2 = 0.7845 | 0.1608
x2 = 0.8292 | 0.1533
x2 = 0.8792 | 0.1362
x2 = 0.9357 | 0.09577

CCOCCOCCOCC [diethylene glycol diethyl ether]
Details | mass density [kg/m3]
[1] | 893.08

CCOCCOCCOCC [diethylene glycol diethyl ether] + OCc1ccccc1
[2]
Details | excess molar enthalpy [kcal/mol]
x1 = 0.0234 | -0.0401
x1 = 0.0458 | -0.0728
x1 = 0.0672 | -0.09959
x1 = 0.0876 | -0.1215
x1 = 0.1259 | -0.1547
x1 = 0.1611 | -0.1773
x1 = 0.2236 | -0.203
x1 = 0.2774 | -0.2131
x1 = 0.3655 | -0.2129
x1 = 0.4635 | -0.1973
x1 = 0.5353 | -0.1792
x1 = 0.6334 | -0.1493
x1 = 0.6973 | -0.1268
x1 = 0.7756 | -0.09598
x1 = 0.8217 | -0.0766
x1 = 0.8736 | -0.0537
x1 = 0.9325 | -0.0274

OCCOCCO [diethylene glycol]
Details | mass density [kg/m3]
[1] | 1105.86

OCCOCCOCCO [triethylene glycol]
Details | mass density [kg/m3]
[1] | 1112.59
